Experimental data as given in ChEMBL document CHEMBL3603835, “Discovery of dihydroisoquinolinone derivatives as novel inhibitors of the p53-MDM2 interaction with a distinct binding mode” (Bioorg Med Chem Lett, 2015).

Assays:
SJSA-1 = test: Antiproliferative activity against p53 positive human SJSA1 cells
[1] = Antiproliferative activity against p53 deficient human Saos2 cells; settings: SAOS-2
[2] = molecular target: Tumour suppressor p53/oncoprotein Mdm2 (Homo sapiens, UniProt Q00987); test: Inhibition of p53-MDM2 interaction (unknown origin) by TR-FRET assay; assay type: protein assay
Chain of Tumour suppressor p53/oncoprotein Mdm2 (P04637 whole entry): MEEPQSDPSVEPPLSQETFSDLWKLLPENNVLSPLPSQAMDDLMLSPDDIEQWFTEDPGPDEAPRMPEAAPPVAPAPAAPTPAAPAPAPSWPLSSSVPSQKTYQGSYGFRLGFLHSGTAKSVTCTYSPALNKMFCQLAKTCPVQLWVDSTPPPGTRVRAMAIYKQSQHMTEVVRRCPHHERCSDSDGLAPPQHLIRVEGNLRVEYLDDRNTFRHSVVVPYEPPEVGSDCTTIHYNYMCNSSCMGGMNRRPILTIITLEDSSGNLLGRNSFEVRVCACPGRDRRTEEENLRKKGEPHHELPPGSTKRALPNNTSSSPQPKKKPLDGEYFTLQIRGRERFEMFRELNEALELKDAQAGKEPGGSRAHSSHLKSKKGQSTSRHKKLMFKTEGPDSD
Chain of Tumour suppressor p53/oncoprotein Mdm2 (Q00987 whole entry): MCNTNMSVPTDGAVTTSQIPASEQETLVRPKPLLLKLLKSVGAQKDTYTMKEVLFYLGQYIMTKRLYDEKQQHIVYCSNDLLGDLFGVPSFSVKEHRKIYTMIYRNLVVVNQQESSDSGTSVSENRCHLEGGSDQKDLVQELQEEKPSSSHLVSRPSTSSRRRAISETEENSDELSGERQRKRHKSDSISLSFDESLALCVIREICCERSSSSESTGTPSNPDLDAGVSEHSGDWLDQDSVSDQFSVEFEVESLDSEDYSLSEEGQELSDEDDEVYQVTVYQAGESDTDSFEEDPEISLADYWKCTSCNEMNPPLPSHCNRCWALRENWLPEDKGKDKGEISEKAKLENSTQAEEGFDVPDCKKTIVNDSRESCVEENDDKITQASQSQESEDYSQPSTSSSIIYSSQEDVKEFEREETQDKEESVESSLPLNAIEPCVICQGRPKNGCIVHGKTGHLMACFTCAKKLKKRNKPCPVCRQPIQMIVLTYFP

SMILES | IC50 (SJSA-1) | IC50 [1] | IC50 [2]
CC[C@@H](C)Oc1cc2c(cc1OC)CC(=O)N(c1ccc(N(C)Cc3ccncc3)cc1)[C@H]2c1ccc(Cl)cc1 | 1200 nM | 12000 nM | –
CC[C@@H](C)Oc1cc2c(cc1OC)CC(=O)N(c1ccc(N(C)Cc3ccncc3)cc1)[C@@H]2c1ccc(Cl)cc1 | 29600 nM | > 30000 nM | –
CC[C@@H](C)Oc1cc2c(cc1OC)CC(=O)N(c1ccc(N(C)Cc3cccc(F)c3)cc1)C2c1ccc(Cl)cc1 (some centres not stated) | – | – | 170 nM
CC[C@@H](C)Oc1cc2c(cc1OC)CC(=O)N(c1ccc(N(C)Cc3ccc(F)cc3)cc1)C2c1ccc(Cl)cc1 (some centres not stated) | – | – | 120 nM
CC[C@@H](C)Oc1cc2c(cc1OC)CC(=O)N(c1ccc(N(C)Cc3cccnc3)cc1)C2c1ccc(Cl)cc1 (some centres not stated) | – | – | 15 nM
CCOc1cc2c(cc1OCC)C(c1ccc(Cl)cc1)N(c1cccc(Cl)c1)C(=O)C2 (racemic) | – | – | 1400 nM
CCOc1cc2c(cc1OCC)C(c1ccc(Cl)cc1)N(c1ccc(OC)cc1)C(=O)C2 (racemic) | 16600 nM | 19600 nM | 540 nM
CCOc1cc2c(cc1OCC)C(c1ccc(Cl)cc1)N(c1ccc(Cl)cc1)C(=O)C2 (racemic) | – | – | 1000 nM
